The source of these data is publication PMC2883571, “Quercetin Targets Cysteine String Protein (CSPα) and Impairs Synaptic Transmission” (PLoS ONE, 2010).

For data set [1], the target named is T1, purified recombinant rat CSPα (Rattus norvegicus, UniProt P60905).
T1 construct: gene Dnajc5; purified recombinant soluble CSPα
T1 sequence (P60905 1-198): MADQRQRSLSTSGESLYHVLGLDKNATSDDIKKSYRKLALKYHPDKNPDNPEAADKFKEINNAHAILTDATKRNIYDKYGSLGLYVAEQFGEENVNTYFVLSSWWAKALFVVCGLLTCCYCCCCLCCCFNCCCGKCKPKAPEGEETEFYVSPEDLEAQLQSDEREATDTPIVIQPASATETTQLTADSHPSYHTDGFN
In words: SDS-resistant dimerization of purified protein, SDS-PAGE. The format is binding. The following applies: 24 h incubation; concentration series.

The target of data set [2] is T2, c-myc-CSPα (Rattus norvegicus, UniProt P60905).
T2 construct: gene Dnajc5; full-length CSPα1-198, c-myc tag kept; transient expression in CAD mouse neuroblastoma cells; palmitoylated monomer ~34 kDa, dimer ~72 kDa
T2 sequence (P60905 1-198): T1 sequence (P60905 1-198)
In words: CSPα dimer in transfected CAD cells, anti-myc Western blot. It counts as cell-based. The note with it: 24 h treatment of intact cells, cysteine string region.

Data set [3] deals with the molecule itself. In words: SDS-resistant dimer on SDS-PAGE with Western blot; lysates of transiently transfected CAD cells, control or treated 24 h with quercetin (up to 200 µM), EGCG or other agents; 30-40 µg protein in SDS sample buffer at 37°C or 80°C; dimer at ∼72 kDa.

On to `O=c1c(O)c(-c2ccc(O)c(O)c2)oc2cc(O)cc(O)c12` [quercetin, 3,3′,4′,5,7-pentapentahydroxyflavone], for which, in data set [1], the CSPα dimer formation result is “quercetin triggered dimerization of recombinant CSPα in a concentration dependent manner”. The “fold CSPα dimer vs control at 100 μM” value in data set [2] was determined as 4 fold.

B1: c-myc tagged rat CSPα_(1–198) (cysteine string protein) (natural protein, UniProt P60905 1-198, looked up)
chain: T1 sequence (P60905 1-198)
modifications: both unmodified and palmitoylated (extensive fatty acylation) species seen
notes: cysteine string protein alpha (CSPα), rat, residues 1-198; also called c-myc-CSPα; source: CAD mouse neuroblastoma cells, transiently transfected, in lysate
On to B1, for which the “fold dimer with 100 µM quercetin at 24 hrs over control” value in data set [3] was 4 fold.
